Columns and labels:
[1] = Ruben et al., biomacromolecules, 2019, 20, 2726; cited from earlier work
[2] = system: DC2.4 cells; assay: Viability by live and dead assay (electro-bioconjugation or glyco-engineering); settings: glyco-engineering (comparative), concentration of 250 μM, 72 h

CC(=O)OC[C@H]1OC(OC(C)=O)[C@@H](NC(=O)CN=[N+]=[N-])[C@@H](OC(C)=O)[C@@H]1OC(C)=O (some centres unmarked) [Ac4ManNAz]
concentration that can be used [1]: ≤ 100 µM
viability [2]: 30%
